Assay results as given in the supplement of paper PMC11003180.

Legend:
Assay in all cases: drug sensitivity score (DSS) from 5-dose viability curve (DSS (area-based score, 0 = no response)); higher = more sensitive (stronger viability inhibition); extreme values may be limits of the assay
[1] = system: MDCK p60AmotL2-inducible + doxycycline (p60AmotL2 expressing); settings: doxycycline: 10 ng/mL; 72 h
Procedure, shortened: (§1)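 After 72 h at 37 °C on 384-well plates pre-spotted with 528 oncology drugs at five doses (1-10,000 nM), parental and doxycycline-inducible MDCK cells were assessed; both lines had been given 10 ng/mL doxycycline in the medium before seeding at 2000 cells/well. Viability was taken from CellTiter-Glo luminescence scaled per plate to vehicle and positive controls, and drug sensitivity scores were derived from dose-response fits in the Breeze pipeline.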

[2] = system: MDCK wild-type + doxycycline; settings: doxycycline: 10 ng/mL; 72 h
Procedure, shortened: as §1

[3] = system: MDCK wild-type - doxycycline; settings: doxycycline: none; 72 h
Procedure, shortened: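 Parental MDCK cells, grown without doxycycline, were seeded at 2000 cells/well into 384-well plates pre-spotted with an oncology library of 528 drugs at five doses (1-10,000 nM). After 72 h at 37 °C, CellTiter-Glo luminescence was read. Viability was scaled per plate between vehicle and positive controls, and drug sensitivity scores were derived from dose-response curve fits in the Breeze pipeline.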

| SMILES | drug sensitivity score [1] | drug sensitivity score [2] | drug sensitivity score [3] |
| --- | --- | --- | --- |
| C=CC(=O)N1CC/C(=C\c2ccc(F)c([N+](=O)[O-])c2)C(=O)/C(=C/c2ccc(F)c([N+](=O)[O-])c2)C1 [VLX1570] | 17.2 | 17.3 | 15.5 |
| COc1cc(Nc2ncc(F)c(Nc3ccc4c(n3)NC(=O)C(C)(C)O4)n2)cc(OC)c1OC [Tamatinib] | 1.6 | 0 | 0 |
| CO[C@@H]1[C@H](N(C)C(=O)c2ccccc2)C[C@H]2O[C@]1(C)n1c3ccccc3c3c4c(c5c6ccccc6n2c5c31)C(=O)NC4 [Midostaurin] | 13.9 | 11.5 | 13.2 |
| O=c1[nH]cc(F)c(=O)[nH]1 [Fluorouracil] | 9.2 | 9.7 | 8.6 |
| COc1cc2ncnc(Nc3ccc(F)c(Cl)c3)c2cc1OCCCN1CCOCC1 [Gefitinib] | 17.9 | 1.5 | 3.2 |
| CCC1(c2ccc(N)cc2)CCC(=O)NC1=O (stereo not drawn) [Aminoglutethimide] | 0 | 0 | 0 |
| Cc1ccc(NC(=O)c2ccc(CN3CCN(C)CC3)cc2)cc1Nc1nc(-c2cccnc2)cs1 [Masitinib] | 5.3 | 8.2 | 5.7 |
| C=CC(=O)Nc1cc2c(Nc3ccc(F)c(Cl)c3)ncnc2cc1OCCCN1CCOCC1 [Canertinib] | 15.2 | 9.6 | 7.9 |
| CCn1c(=O)c(-c2ccc(Cl)cc2Cl)cc2cnc(Nc3ccc(N4CCNCC4)c(F)c3)nc21 [FRAX486] | 2.3 | 0 | 1.7 |
| CN(C)C(=O)c1ccc(S(=O)(=O)c2ccc(NC(=O)[C@@](C)(O)C(F)(F)F)c(Cl)c2)cc1 [AZD7545] | 0 | 0 | 0 |
| CONC(=O)c1ccccc1Nc1cc(Nc2cc(C)nn2C(C)C)ncc1Cl | 1.2 | 0 | 0 |
| CCS(=O)(=O)N1CCN(c2ccc(Nc3ncc(C(N)=O)c(NC4CC4)n3)cc2)CC1 [Cerdulatinib] | 0.2 | 0 | 0.2 |
| O=S(=O)(c1cccc2c(O)nccc12)N1CCCNCC1 [Hydroxyfasudil] | 0 | 0 | 0 |
| COC(=O)c1ccc2c(c1)NC(=O)/C2=C(\Nc1ccc(N(C)C(=O)CN2CCN(C)CC2)cc1)c1ccccc1 [Nintedanib] | 8.3 | 1.3 | 0.3 |
| CC[C@@]1(O)C(=O)OCc2c1cc1n(c2=O)Cc2cc3c(CN(C)C)c(O)ccc3nc2-1 [Topotecan] | 11.5 | 10.1 | 8.1 |
| COc1ccc(-c2nc(N3CCOCC3)c3sc(CN(C)c4ncc(C(=O)NO)cn4)cc3n2)cn1 [CUDC-907] | 30.3 | 28.3 | 27.2 |
| CCN1CCN(c2ccc(Nc3cc(N(C)C(=O)Nc4c(Cl)c(OC)cc(OC)c4Cl)ncn3)cc2)CC1 [Infigratinib] | 0 | 0 | 0 |
| O=C(NC[C@H](O)CN1CCc2ccccc2C1)c1cc(NC2COC2)ncn1 | 0.2 | 0 | 0 |

| SMILES | drug sensitivity score [1] | drug sensitivity score [2] | drug sensitivity score [3] |
| --- | --- | --- | --- |
| CC(C)(C)Cn1c(N)nc2ccc(-c3[nH]c(C(C)(C)C)nc3-c3ccc(F)cc3)nc21 [Ralimetinib] | 4.4 | 3.5 | 0 |
| Nc1nc(F)nc2c1ncn2[C@@H]1O[C@H](CO)[C@@H](O)[C@@H]1O [Fludarabine] | 0 | 0 | 0 |
| N#CC(c1ccnc(OCc2ccc(CN3CCOCC3)cc2)n1)c1nc2ccccc2s1 (stereo not drawn) [Bentamapimod] | 2.1 | 1.5 | 1.2 |
| COc1cc2c(NC3CCN(C(C)C)CC3)nc(N3CCC(F)(F)CC3)nc2cc1OCCCN1CCCC1 [UNC0642] | 0.2 | 0 | 0 |
| CC1(C)CNc2cc(NC(=O)c3cccnc3NCc3ccncc3)ccc21 [Motesanib] | 0 | 0 | 0 |
| O=c1[nH]c(=O)n([C@H]2C[C@H](O)[C@@H](CO)O2)cc1C(F)(F)F [Trifluridine] | 2.6 | 1.4 | 1.4 |
| Cc1c(-c2c(-c3ccc(F)o3)sc3ncnc(O[C@H](Cc4ccccc4OCc4ccnn4CC(F)(F)F)C(=O)O)c23)ccc(OCCN2CCN(C)CC2)c1Cl | 0 | 0 | 0 |
| CNC(=O)CN1CCC(Oc2cc3c(Nc4cccc(Cl)c4F)ncnc3cc2OC)CC1 [Sapitinib] | 12.9 | 4.5 | 1.2 |
| Nc1ncn([C@H]2C[C@H](O)[C@@H](CO)O2)c(=O)n1 [Decitabine] | 0.6 | 0 | 1.1 |
| CC(C)c1c(C(=O)Nc2ccccc2)c(-c2ccccc2)c(-c2ccc(F)cc2)n1CC[C@@H](O)C[C@@H](O)CC(=O)O [Atorvastatin] | 0.4 | 0 | 0 |
| CNC(=O)c1nn(C)c2c1C(C)(C)Cc1cnc(Nc3ccc(N4CCN(C)CC4)cc3)nc1-2 [Milciclib] | 13.2 | 14.5 | 12.4 |
| CC(C)C[C@@H](C(=O)N[C@H](C(=O)OC1CCCC1)c1ccccc1)[C@H](O)C(=O)NO [Tosedostat] | 2.5 | 1.7 | 1.4 |
| Cn1cncc1[C@@](N)(c1ccc(Cl)cc1)c1ccc2c(c1)c(-c1cccc(Cl)c1)cc(=O)n2C [Tipifarnib] | 9.6 | 4.4 | 2.5 |
| CC[C@H](C)C(=O)O[C@H]1C[C@H](O)C=C2C=C[C@H](C)[C@H](CC[C@@H](O)C[C@@H](O)CC(=O)O)[C@H]21 [Pravastatin] | 0 | 0 | 0 |
| CC[C@@H](C(=O)[C@@H](C)[C@@H](O)[C@H](C)[C@@H]1O[C@@H]([C@@H](CC)C(=O)O)CC[C@@H]1C)[C@H]1O[C@]2(C=C[C@@H](O)[C@]3(CC[C@@](C)([C@H]4CC[C@](O)(CC)[C@H](C)O4)O3)O2)[C@H](C)C[C@@H]1C [Salinomycin] | 18.7 | 0.9 | 0.4 |
| O=C(NOCCO)c1ccc2cncn2c1Nc1ccc(I)cc1F [GDC-0623] | 0.3 | 0 | 1.4 |
| N#CC[C@H](C1CCCC1)n1cc(-c2ncnc3[nH]ccc23)cn1 [Ruxolitinib] | 0 | 0 | 0 |
| COCC1(CO)C(=O)C2CCN1CC2 (stereo not drawn) [APR-246] | 0 | 0 | 0 |
